According to US9447114B2, “Thieno- and furo[2,3-d]pyrimidine-2,4[1H,3H]-dione derivatives” (Hydra Biosciences, Inc., priority 2014, dated 2016):

Assays:
[1] = biological target: T1, TRPC5 channel (Homo sapiens (Human), UniProt Q9UL62); assay: High throughput screening assay: intracellular Ca2+ rise, Fluo4 cell-based fluorescence; conditions: HEK293/TREx cells inducibly expressing TRPC5, high-Ca2+ Ringer, 14 mM Ca2+ final, triplicate, 0.027-20 μM
Text: The assay depended on detection of the rise in intracellular Ca2+ concentration ([Ca2+]i) following channel activation in cells inducibly expressing the TRPC5 channel. Ca2+ rise was quantified with the use of fluorescent Ca2+ indicators that were loaded into cells and thereafter indicated the [Ca2+]i Ca2+ influx followed activation of the TRPC5 channel. Compounds inhibiting the [Ca2+]i rise were considered hits for further investigation.
The commercially available HEK293/TREx line (Invitrogen) was stably transfected with a TRPC5 construct and screened by conventional calcium imaging to find clones with TRPC5 expression following stimulation with 1 μg/ml tetracycline. These cells were maintained in the growth medium recommended by the manufacturer supplemented with 100 μg/ml hygromycin to promote retention of the TRPC5 construct. After growing to near confluency, cells were plated at a density of ˜35,000 cells/well in 384 well CellBind plates (Corning) in the presence of 1 μg/ml tetracycline, and allowed to grow for 20-30 hrs. A nearly confluent monolayer resulted. Cells were then loaded with Ca2+ dye: Fura-2/AM or Fluo4/AM was added to the wells to a final concentration of 4 μM or 0.5 μM, respectively, and incubated for 80 min or 60 min, respectively, at room temperature. Supernatant was then removed from the cells by inverting plates with a sharp flick, and 25 μl Hank's Balanced Salt Solution (HBSS; 0.185 g/l D-glucose, 0.9767 g/l MgS04 (anhydrous), 0.4 g/l KCl, 0.06 g/l KH2PO4 (anhydrous), 0.35 g/l NaHCO3, 8.0 g/l NaCl, and 0.04788 g/l Na2HPO4 (anhydrous); pH 7.4) was then added to each well. Following ˜0.5 hour for recovery from loading, cells were assayed using the Hamamatsu FDSS 6000 system, which permitted illumination alternately at 340 nm and 380 nm for Fura-2 experiments, or at 485 nm for Fluo4 experiments. Frames were acquired at a rate of 0.2 Hz. During the assay, the plates were continuously vortexed, with pipette mixing of wells following addition of each reagent. For the screening assay, 26 μl of a diluted compound stock (at 50 μM) was added to each well for 2 minutes following the collection of a short (4 frame) baseline. 13 μl 62 mM high-Ca2+Ringer solution (4.17 ml of normal ringer (with 2 mM Ca2+) plus 5.83 ml of isotonic calcium ringer (105 mM Ca2+; in this ringer all sodium has been replaced with calcium)) was then added to each well, achieving a final concentration of 14 mM Ca2+ and 10 μM test compound. Data was collected for ˜3 minutes following addition of high Ca2+Ringer, where the fluorescent intensity (for Fluo4) and the F340/F380 ratio (for Fura-2) were proportional to the [Ca2+]i Negative controls consisted of HEK293/TREx TRPC5 cells exposed to high Ca2+ solution, but no compound. Positive control conditions consisted of addition of 2-APB, a promiscuous blocker of TRPC5 and other channels, to columns 23 and 24 of the plates, to a final concentration of 200 μM. These controls defined a screening window, and “hits” were defined as those compounds inhibiting the fluorescence response by at least 40%. IC50 values were determined for compounds defined as “hits.” The Fluo4 cell-based fluorescence assay was used to determine the intracellular Ca2+ concentration in the presence of varying drug concentration. Final concentrations of compounds tested were 20 μM, 6.667 μM, 2.222 μM, 0.741 μM, 0.247 μM, 0.082 μM, and 0.027 μM. Compounds were tested in triplicate at all concentrations. Standard software was used to fit IC50 curves.
Additionally or alternatively, efficacy can be represented as % inhibition in the presence (of a given concentration of compound) versus the absence of compound or in comparison to a control compound. For example, efficacy can be represented as % inhibition of ion flux in the presence versus the absence of compound.

[2] = biological target: T1, TRPC5 channel; assay: Whole-cell patch clamp of TRPC5 current; type: cell-based; conditions: TRPC5-expressing HEK293 TREx cells, current activated by 80 μM LaCl3 and 1.4 μM free Ca2+ in pipette, IC50 estimated
Text: Patch clamp experiments permit the detection of currents through the TRPC5 channel in the cell line described above. In normal whole-cell patch clamp recordings, a glass electrode is brought into contact with a single cell and a high-resistance (gigaohm) seal is established with the cell membrane. The membrane is then ruptured to achieve the whole-cell configuration, permitting control of the voltage of the cell membrane and measurement of currents flowing across the membrane using the amplifier attached to the electrode and resulting in the replacement of cytoplasm with the pipette solution. A perfusion system permits control of the extracellular solution, including the addition of blockers and activators of the current. The current can be activated by including 1.4 μM free Ca^2+ in the pipette (intracellular) solution, and 80 μM LaCl3 in the extracellular solution.
TRPC5 cells were induced 20-48 hours, removed from growth plates, and replated at low density (to attain good single-cell physical separation) on glass coverslips for measurement. In some cases, cells were grown in low density overnight on glass coverslips. Patch clamp recordings were made in the whole-cell mode with a holding potential of −40 mV. Every 5 seconds, a voltage ramp was applied from −120 to +100 mV, 400 ms in duration. Currents elicited were quantified at −80 mV and +80 mV. The internal solution consisted of 140 mM cesium aspartate, 10 mM HEDTA, 2 mM CaCl2, 2.27 mM MgCl2 and 10 mM HEPES, pH 7.2, with 1,400 nM calculated free Ca^2+. The external solution consisted of 150 mM NaCl, 4.5 mM KCl, 1 mM MgCl2, 2 mM CaCl2 10 mM HEPES, 10 mM glucose, 1 mM EGTA, pH 7.4. Upon addition of LaCl3, TRPC5 current was induced only in TRPC5-expressing cells and not in parental HEK293 TREx cells. Removal of the LaCl3 stimulus causes most of the current to go away. Potential blockers were tested for ability to block both inward and outward currents in the continued presence of LaCl3.
IC50 of a compound of Formula (I) was estimated by testing the compound at 5 μM and 500 nM. […] IC50 for a compound of Formula (I) between 500 nM and 5 μM was similarly estimated.

T1 sequence (Q9UL62 whole entry): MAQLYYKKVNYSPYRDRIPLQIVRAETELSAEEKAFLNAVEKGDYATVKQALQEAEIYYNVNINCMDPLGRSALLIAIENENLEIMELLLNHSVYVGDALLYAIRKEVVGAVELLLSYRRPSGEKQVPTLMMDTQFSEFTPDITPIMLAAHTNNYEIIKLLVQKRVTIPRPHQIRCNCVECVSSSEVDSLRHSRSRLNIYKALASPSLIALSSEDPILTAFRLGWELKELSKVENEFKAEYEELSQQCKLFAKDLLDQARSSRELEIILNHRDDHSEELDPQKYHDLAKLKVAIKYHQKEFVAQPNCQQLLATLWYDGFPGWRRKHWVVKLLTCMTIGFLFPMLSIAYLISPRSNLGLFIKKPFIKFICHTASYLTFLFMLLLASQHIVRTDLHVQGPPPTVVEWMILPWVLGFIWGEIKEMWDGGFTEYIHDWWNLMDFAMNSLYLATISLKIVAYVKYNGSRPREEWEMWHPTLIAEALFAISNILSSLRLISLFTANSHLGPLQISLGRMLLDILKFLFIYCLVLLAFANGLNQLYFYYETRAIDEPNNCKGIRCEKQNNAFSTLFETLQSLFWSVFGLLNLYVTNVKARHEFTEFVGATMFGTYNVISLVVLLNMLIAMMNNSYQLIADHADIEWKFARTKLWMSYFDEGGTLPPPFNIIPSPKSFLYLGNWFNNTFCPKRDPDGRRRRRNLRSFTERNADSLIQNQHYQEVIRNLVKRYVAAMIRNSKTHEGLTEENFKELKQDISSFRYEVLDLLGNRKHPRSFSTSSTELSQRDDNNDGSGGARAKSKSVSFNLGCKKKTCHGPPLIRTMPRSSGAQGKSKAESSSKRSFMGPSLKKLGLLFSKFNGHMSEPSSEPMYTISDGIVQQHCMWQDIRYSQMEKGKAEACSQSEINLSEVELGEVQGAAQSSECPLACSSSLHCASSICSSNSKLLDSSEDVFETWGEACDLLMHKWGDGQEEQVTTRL

Cn1c(=O)n(CCCO)c(=O)c2c(Cc3ccc(Cl)cc3)c(Oc3cccc(Cl)c3)sc21 [Compound 2, 5-(4-chlorobenzyl)-6-(3-chlorophenoxy)-3-(3-hydroxypropyl)-1-methylthieno[2,3-d]pyrimidine-2,4(1H,3H)-dione]
IC50 [1]: 117 nM
IC50 [2]: < 1 nM
